Source: patent US8603986B2, “Compounds and methods for modulating cadherin-mediated processes” (McGill University, priority 2005, dated 2013)
pKd: −log10 of the molar value. Marks after values point to notes of the source that are not given here.

How the values were obtained:
[1] = molecular target: T1, E-cadherin/Fc chimeric protein (Homo sapiens, UniProt P12830); test: Table 8 summary: peptide binds to E-cad/Fc; format: binding; set-up: key: +: yes; −: no
T1 construct: extracellular domain of human E-cadherin (Asp155-Ile707); purchased R&D Systems, Minneapolis, Minn
T1 sequence (P12830 155-707): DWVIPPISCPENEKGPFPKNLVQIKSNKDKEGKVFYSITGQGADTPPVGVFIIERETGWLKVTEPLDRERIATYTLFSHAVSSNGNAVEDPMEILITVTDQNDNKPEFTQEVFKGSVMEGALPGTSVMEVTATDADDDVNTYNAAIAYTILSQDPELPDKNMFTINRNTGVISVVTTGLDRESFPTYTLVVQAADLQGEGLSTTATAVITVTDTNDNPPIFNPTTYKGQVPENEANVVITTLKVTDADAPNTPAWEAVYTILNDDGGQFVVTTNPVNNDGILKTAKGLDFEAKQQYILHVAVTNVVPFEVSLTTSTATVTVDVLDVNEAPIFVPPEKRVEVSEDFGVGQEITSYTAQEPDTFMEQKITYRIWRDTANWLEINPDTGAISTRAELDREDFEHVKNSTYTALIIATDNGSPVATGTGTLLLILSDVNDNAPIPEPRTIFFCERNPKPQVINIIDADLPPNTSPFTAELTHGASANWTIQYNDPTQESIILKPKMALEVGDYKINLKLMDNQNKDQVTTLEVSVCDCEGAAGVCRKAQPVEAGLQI

[2] = tested on: MCF-7 human breast cancer cells; test: Disruption of MCF-7 cell adhesion; format: cell-based; set-up: key to Peptide Disrupts Adhesion of MCF-7 cells: +: yes; −: no; conditions: for Peptide Disrupts Adhesion of MCF-7 cells: Table 8 summary
Procedure: MCF-7 human breast cancer cells (kind gift from Dr. Riaz Farookhi, McGill University, Montreal, Quebec) were cultured in the same medium as SKOV3 but supplemented with 1 mM sodium pyruvate.
(§1) Depending on their solubility, peptides were dissolved directly in culture medium and added to confluent cell cultures at the indicated concentration, or they were dissolved in dimethylformamide (DMF) to obtain a 100× concentrated solution or in water to obtain a 10× concentrated solution. The peptide stock solutions were further diluted with culture medium to a final working concentration and added to confluent cell cultures. Culture medium containing 1% solvent was used as a control. At the end of the treatment, cells were either examined by phase contrast microscopy, or fixed with 4% paraformaldehyde in PBS and stained with hematoxylin prior to light microscopic examination.

[3] = tested on: SKOV3 human ovarian cancer cells; test: Disruption of SKOV3 cell adhesion in confluent cultures; format: cell-based; set-up: key to Peptide Disrupts Adhesion of SKOV3 cells: +: yes; −: no; conditions: for Peptide Disrupts Adhesion of SKOV3 cells: Table 8 summary
Procedure: SKOV3 human ovarian cancer cells (kind gift from Dr. Riaz Farookhi, McGill University, Montreal, Quebec) were cultured in MEM containing 1.25 μg/ml Fungizone, 100 U/ml penicillin 100 μg/ml streptomycin, 0.1 mM nonessential amino acids, 2 mM L-glutamine, 10 μg/ml ml gentamicin and 10% fetal bovine serum. All culture reagents were purchased from GIBCO (Burlington, ON). To obtain confluent cell cultures, 100,000 cells per well were plated onto a 4 well slide (NalgeNunc, Naperville, Ill.) and incubated for 24 h at 37° C., in a humidified atmosphere (5% CO2).
as §1
Confluent cultures of SKOV3 cells were incubated in the presence of individual peptides.

[4] = molecular target: T2, N-cadherin/Fc chimeric protein (Homo sapiens, UniProt P19022); test: Table 8 summary: peptide binds to N-cad/Fc; format: binding; set-up: key: +: yes; −: no
T2 construct: extracellular domain of human N-cadherin (Asp160-Ala724); purchased R&D Systems, Minneapolis, Minn
T2 sequence (P19022 160-724): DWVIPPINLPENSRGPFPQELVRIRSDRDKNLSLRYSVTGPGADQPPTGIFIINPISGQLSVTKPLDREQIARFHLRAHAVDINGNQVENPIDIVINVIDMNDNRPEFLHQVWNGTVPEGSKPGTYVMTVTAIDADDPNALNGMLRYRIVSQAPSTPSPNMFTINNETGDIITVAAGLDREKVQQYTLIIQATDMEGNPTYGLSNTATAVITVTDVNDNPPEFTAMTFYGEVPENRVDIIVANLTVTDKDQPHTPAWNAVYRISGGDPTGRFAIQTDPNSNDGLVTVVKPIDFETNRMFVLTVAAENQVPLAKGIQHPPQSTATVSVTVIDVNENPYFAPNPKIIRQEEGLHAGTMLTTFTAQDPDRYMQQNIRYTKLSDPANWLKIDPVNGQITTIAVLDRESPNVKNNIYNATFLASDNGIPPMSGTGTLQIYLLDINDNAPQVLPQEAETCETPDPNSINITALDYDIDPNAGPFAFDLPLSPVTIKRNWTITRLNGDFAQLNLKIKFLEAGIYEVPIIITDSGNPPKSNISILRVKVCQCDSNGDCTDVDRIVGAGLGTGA

[5] = tested on: Human Umbilical Vein Endothelial Cells (HUVEC); test: Disruption of HUVEC adhesion; format: cell-based; set-up: key to Peptide Disrupts Adhesion of HUVEC: +: yes; −: no; conditions: for Peptide Disrupts Adhesion of HUVEC: Table 8 summary
Procedure: (§2) Human Umbilical Vein Endothelial Cells (HUVEC) and Human Dermal Microvascular Endothelial Cells (HMVEC-d) were purchased from Cambrex Bio Science Walkersville, Inc. Clonetics EGM-2 and EGM-2-MV Bulletkits (Cambrex Bio Science Walkersville, Inc) were used to culture HUVEC and HMVEC-d respectively. Cells (40,000 per well) were plated onto a 4 well slide (NalgeNunc, Naperville, Ill.) and incubated at 37° C., in a humidified atmosphere (5% CO2).
as §1

[6] = molecular target: T2, N-cadherin/Fc chimeric protein; test: Surface plasma resonance (Biacore) analysis on N-cadherin/Fc; format: binding
Procedure: (§3) The binding of representative peptide modulating agents to either N- or VE-cadherin/Fc chimeric proteins was assessed using a BIAcore X™ Biosensor (Pharmacia Ltd., Sweden). Goat anti-human IgG recognizing N- and VE-cadherin/Fc chimeric proteins (R&D Systems, Minneapolis, Minn.) was immobilized on a CM5 sensor chip (Biacore S51) using standard amine-coupling method at 25° C. HBS-P buffer (10 mM HEPES, 0.15 M NaCl, 0.005% p20, pH 7.4) was used as the running buffer. The carboxymethyl dextran surface was activated with a 7 min injection of a 1:1 ratio of 0.4 M EDC and 0.1 M NHS. The goat anti-human IgG (Caltag Lab.) was coupled to the surface with a 7 min injection diluted in 10 mM sodium acetate, pH 5.0 to a final concentration 80 ug/ml. Remaining activated groups were blocked with a 7 min injection of 1 M ethanolamine, pH 8.5. N- and VE-cadherin/Fc chimeric proteins were dissolved in buffer containing 50 mM Tris HCl, 150 mM NaCl, and 1.2 mM CaCl2 pH 7.5 to a concentration of 0.2 μM and captured on spots 1 and 2 at a flow rate of 30 μl/min for 30 min with resulting density 927 RU for N-cadherin/Fc chimeric protein and 1008 RU for VE-cadherin/Fc chimeric protein.
The linear peptide H-SWTLYTPSGQSK-NH2 (SEQ ID NO: 16) and the control linear peptide H-SRTLYTPSGQSK-NH2 (SEQ ID NO: 58) were passed over surfaces coated with captured N- and VE-cadherin/Fc chimeric proteins in running buffer containing 50 mM Tris-HCl, 150 mM NaCl, and 1.2 mM CaCl2, pH 7.5 at concentrations ranging from 100-1.56 uM. The experiment was performed at a flow rate 90 ul/min at 25° C. […] All responses were referenced for reference surface and blank injections of running buffer.

[7] = molecular target: T3, VE-cadherin/Fc chimeric protein (Homo sapiens, UniProt P33151); test: Surface plasma resonance (Biacore) analysis on VE-cadherin/Fc; format: binding; conditions: 100-1.56 uM
T3 construct: purchased R&D Systems, Minneapolis, Minn
T3 sequence (P33151 with tags, fused parts or gaps limits assumed, species assumed): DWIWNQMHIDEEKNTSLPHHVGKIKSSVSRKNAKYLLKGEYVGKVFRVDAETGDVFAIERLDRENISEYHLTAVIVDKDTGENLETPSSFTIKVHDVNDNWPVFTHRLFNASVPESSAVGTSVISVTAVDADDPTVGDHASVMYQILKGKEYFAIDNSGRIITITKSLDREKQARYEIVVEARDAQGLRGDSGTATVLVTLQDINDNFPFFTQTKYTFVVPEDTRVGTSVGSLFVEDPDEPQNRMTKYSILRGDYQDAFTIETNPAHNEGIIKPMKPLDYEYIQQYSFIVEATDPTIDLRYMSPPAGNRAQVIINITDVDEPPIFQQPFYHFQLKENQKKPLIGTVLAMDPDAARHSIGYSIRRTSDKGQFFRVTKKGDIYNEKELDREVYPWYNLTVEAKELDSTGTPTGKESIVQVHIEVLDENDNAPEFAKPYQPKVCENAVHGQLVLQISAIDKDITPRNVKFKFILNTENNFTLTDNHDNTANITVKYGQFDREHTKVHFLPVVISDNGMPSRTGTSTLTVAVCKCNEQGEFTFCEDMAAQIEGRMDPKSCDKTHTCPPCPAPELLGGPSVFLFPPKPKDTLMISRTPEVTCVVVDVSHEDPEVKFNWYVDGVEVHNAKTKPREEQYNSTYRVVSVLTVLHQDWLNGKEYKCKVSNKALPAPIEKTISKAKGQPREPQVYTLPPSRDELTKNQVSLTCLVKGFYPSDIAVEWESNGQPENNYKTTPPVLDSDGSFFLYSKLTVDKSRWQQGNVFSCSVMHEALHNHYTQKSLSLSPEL
Procedure: as §3, with “protein. […]” for “protein.”

[8] = tested on: Human Dermal Microvascular Endothelial Cells (HMVEC-d); test: Disruption of HMVEC adhesion; format: cell-based; set-up: key to Peptide Disrupts Adhesion of HMVEC: +: yes; −: no; conditions: for Peptide Disrupts Adhesion of HMVEC: Table 8 summary
Procedure: as §2, §1

[9] = 1 mg/ml medium, up to 1 h incubation
[10] = confluent cultures, concentration not given

Substance	Peptide Binds to E-cad/Fc [1]	Peptide Binds to N-cad/Fc [4]	Peptide Disrupts Adhesion of MCF-7 cells [2]	Peptide Disrupts Adhesion of SKOV3 cells [3]	effect on HUVEC adhesion [5, 9]	Peptide Disrupts Adhesion of HUVEC [5]	also measured
H-SWTLYTPSGQSK-(succinyl-PEG5000-OMe)—NH2 (H-SWTLYTPSGQSK-NH2; also: succinyl-PEG5000-OMe attached, site not given here)							activity on HUVEC adhesion ([5]; 4.7 mg/ml): strong activity; incubation time within which HUVEC adhesion was disrupted ([5]; 4.7 mg/ml): within one hour
H-SWTLYTPSGQSK-NH2 [H-SWTLYTPSGQSK-NH2]	−	+	−	+	disrupted HUVEC adhesion	+	effect on HUVEC adhesion ([5]; 0.062 mg/ml, 1 h incubation): moderate activity; incubation time after which HUVEC adhesion was disrupted ([5]; 1 mg/ml medium): 5 min; incubation time of maximum effect on HUVEC adhesion ([5]; 1 mg/ml medium): 1 h; peptide concentrations disrupting HUVEC adhesion ([5]; after 1 h incubation, dose-dependent): ≥ 0.125 mg/mL; pKd ([6]; 25° C., 1.2 mM CaCl2): 4.18; kd ([6]; 25° C., 1.2 mM CaCl2): 0.407(8) s^−1; kon ([6]; pH 7.5, 25° C., 1.2 mM CaCl2, read-out: ka): 6100 M⁻¹ s⁻¹; effect on MCF-7 cell adhesion ([2]; concentration not given): did not affect MCF-7 cell adhesion; binding to VE-cadherin/Fc chimeric protein [7]: did not bind; effect on SKOV3 cell adhesion [3, 10]: disrupted SKOV3 cell adhesion; effect on HMVEC adhesion ([8]; 0.062 mg/ml): disrupted; effect on HMVEC adhesion ([8]; 0.125 mg/ml): more pronounced effects; effect on HMVEC adhesion ([8]; 0.5 mg/ml and higher): still stronger effects; Peptide Disrupts Adhesion of HMVEC [8]: +
H-SWELYYPLRANL-NH2	+	+	+	+			effect on MCF-7 cell adhesion ([2]; 1 mg/ml): disrupted; effect on SKOV3 cell adhesion ([3]; 1 mg/ml): disrupted

The next lines start with results.

Peptide Binds to E-cad/Fc [1]	Peptide Binds to N-cad/Fc [4]	Substance	Peptide Disrupts Adhesion of MCF-7 cells [2]	Peptide Disrupts Adhesion of SKOV3 cells [3]	effect on HUVEC adhesion [5, 9]	Peptide Disrupts Adhesion of HUVEC [5]	also measured
+	+	H-EWMIHYDSALTS-NH2	+	+			effect on MCF-7 cell adhesion ([2]; 1 mg/ml): disrupted; effect on SKOV3 cell adhesion ([3]; 1 mg/ml): disrupted
	−	H-SRTLYTPSGQSK-NH2 [reference compound]		−	had no biological activity	−	binding to N-cadherin/Fc chimeric protein ([6]; 100-1.56 uM): did not bind; binding to VE-cadherin/Fc chimeric protein [7]: did not bind; effect on SKOV3 cell adhesion [3, 10]: had no effect; Peptide Disrupts Adhesion of HMVEC [8]: −; effect on HMVEC adhesion ([8]; highest concentration of 1 mg/ml): had no biological activity
−	+	H-WELRVSSP-NH2		+			effect on cell adhesion and cell morphology ([3]; 0.5 mg/ml, SKOV3 per b307 and Table 8): capable of disrupting cell adhesion and altering cell morphology
−	+	H-HWYITTGPVREK-NH2			had no effect on HUVEC adhesion	−	
−##	+#	H-WYVCVGAH-NH2	−	+			effect on MCF-7 cell adhesion ([2]; 100 μg/ml): did not affect MCF-7 cell adhesion; effect on SKOV3 cell adhesion and morphology ([3]; 100 and 150 μg/ml (tested 50, 100 and 150 μg/ml medium), 24 h): capable of disrupting cell adhesion and altering cell morphology; culture time after which the effect on SKOV3 cell adhesion was evident ([3]; more pronounced after 24 h): 9 h
